The record followed here is patent US20230093099A1, “COMPOUNDS AND METHODS OF TREATING CANCERS” (CULLGEN (SHANGHAI), INC., priority 2019, published 2023).

Read-outs that look alike come from different tables or passages of the source.

Type in all cases: cell-based
The target in one test is T1, JAK1 (Homo sapiens, UniProt P23458).
T1 construct: immunoblot of JAK1/3 proteins expressed in RS4;11 cells; endogenous in cells; host or cells: RS4;11 cells
The experiment in a line: Immunoblot of JAK1 protein level in RS4;11 cells. The following applies: 24 hours, immunoblot, read-out: concentration required to reduce JAK1 by 50% (DC50). Here is the method: RS4;11 cells were treated with compounds at indicated concentrations for 24 hours. […] The concentrations required to reduce JAK1 by 50% (DC50) were below 5 nM and 35 nM for compound JA-189 and JA213, respectively.
(§1) HEL, RS4;11, MV4;11, Kasumi-1 and other cells were cultured at 37° C. with 5% CO2 in RPMI 1640 or DMEM Medium supplemented with 10% fetal bovine serum. Cells were authenticated using the short tandem repeat (STR) assays. Mycoplasma test results were negative.
(§2) Rabbit anti-JAK1 antibody (3344S), anti-JAK2 antibody (3230S), anti-JAK3 antibody (8827S), anti-TYK2 antibody (14193S), anti-FLT3 antibody (3462S), anti-RET antibody (14556S), anti-phospho-STAT3 (Tyr705) antibody (9145S) and anti-phospho-STAT5 (Tyr694) antibody (4322S) were purchased from Cell Signaling Technology. Rabbit anti-GSPT1 antibody (ab126090) was purchased from Abcam. HRP-conjugated anti-α-tubulin antibody was produced in house. Media and other cell culture reagents were purchased from Thermo Fisher. The CellTiter-Glo Luminescent Assay kit was purchased from Promega.
(§3) Cultured cells were washed with cold PBS once and lysed in cold RIPA buffer supplemented with protease inhibitors and phosphatase inhibitors (Beyotime Biotechnology). The solutions were then incubated at 4° C. for 30 minutes with gentle agitation to fully lyse cells. Cell lysates were centrifuged at 13,000 rpm for 10 minutes at 4° C. and pellets were discarded. Total protein concentrations in the lysates were determined by BCA assays (Beyotime Biotechnology). Cell lysates were mixed with Laemmli loading buffer to 1× and heated at 99° C. for 5 min. Proteins were resolved on SDS-PAGE and visualized by chemiluminescence. Images were taken by a ChemiDoc MP Imaging system (Bio-Rad). Protein bands were quantitated using the accompanied software provided by Bio-Rad.
On the technique in general: In western blotting, separated proteins are transferred to a membrane and probed.

Another test addresses T2, GSPT1 (Homo sapiens, UniProt P15170).
T2 construct: immunoblot of GSPT1 and tubulin expressed in RS4:11 cells; endogenous in cells; host or cells: RS4;11 cells
Nature of the test: Immunoblot of GSPT1 protein level in RS4;11 cells. The following applies: 16 hours, immunoblot, read-out: concentration required to reduce GSPT1 by 50% (DC50). The method, then:
RS4;11 cells were treated with compounds at indicated concentrations for 16 hours. […] The concentrations required to reduce GSPT1 by 50% (DC50) were below 2 nM for compound JA-189 and 10 nM JA213.
as §1, §2, §3

A further test concerns RS4;11 cells. Nature of the test: Cell viability assay (CellTiter-Glo) in RS4;11 cells. The following applies: cell viability, read-out: IC50. In a few lines: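 RS4;11 cells seeded at 5000 per well, exposed for 3 days to 8- or 12-point 3-fold serial dilutions. Viability read by CellTiter-Glo luminescence; IC50 fitted by nonlinear least-squares regression.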
In a further test the test system is MOLM-13 cells. Nature of the test: Cell viability assay (CellTiter-Glo) in MOLM-13 cells. The following applies: MOLM-13, AML, 3 days. Here is the method:
(§4) MV4;11, RS4;11, Kasumi-1, HEL and other cells were treated with NVP-BSK805, TG101209 or selected degraders for 3 days at indicated concentrations following a 3-fold serial dilution.
as §1
(§5) Cells were seeded at a density of 5000 cells per well in 96-well assay plates and treated with test compounds following a 8-point or 12-point 3-fold serial dilution. Three days later, cell viability was determined using the CellTiter-Glo assay kit according to the manufacturer's instructions. The dose-response curves were determined and IC50 values were calculated using the GraphPad Prism software following a nonlinear regression (least squares fit) method.

Another test deals with HEL cells. The experiment in a line: Cell viability assay (CellTiter-Glo) in HEL cells. The following applies: erythroleukemia, cell viability, 3 days. Here is the method: as §4, §1, §5
In a further test the test system is KM12 cells. Nature of the test: Cell viability assay (CellTiter-Glo) in KM12 cells. The following applies: KM12, colorectal carcinoma, 3 days. Here is the method:
as §4, §1, §5
In general terms: Cellular ATP, detected with luciferase, serves as a proxy for viable cell number.

The next test deals with Jurkat cells. Nature of the test: Cell viability assay (CellTiter-Glo) in Jurkat cells. As to conditions: T-ALL, 3 days. Here is the method:
as §4, §1, §5

The subject of the next test is Pfeiffer cells. Nature of the test: Cell viability assay (CellTiter-Glo) in Pfeiffer cells. As to conditions: DLBCL, 3 days. The method, then:
as §4, §1, §5

The subject of a further test is MM.1S cells. Nature of the test: Cell viability assay (CellTiter-Glo) in MM.1S cells. As to conditions: Multiple Myeloma, 3 days. The method, then:
as §4, §1, §5

For the next test, the system named is MOLT-4 cells. The experiment in a line: Cell viability assay (CellTiter-Glo) in MOLT-4 cells. The following applies: MOLT-4, T-ALL, 3 days. Here is the method:
as §4, §1, §5

The subject of the next test is NCI-H929 cells. The experiment in a line: Cell viability assay (CellTiter-Glo) in NCI-H929 cells. As to conditions: NCI-H929, Multiple Myeloma, 3 days. Here is the method: as §4, §1, §5
The subject of another test is MEG-01 cells. The experiment in a line: Cell viability assay (CellTiter-Glo) in MEG-01 cells. The following applies: MEG-01, CML, 3 days. The method, then:
as §4, §1, §5

The test system of another test is WSU-DLCL2 cells. The experiment in a line: Cell viability assay (CellTiter-Glo) in WSU-DLCL2 cells. As to conditions: WSU-DLCL2, DLBCL, 3 days. Here is the method:
as §4, §1, §5

The next test relates to SU-DHL-1 cells. The experiment in a line: Cell viability assay (CellTiter-Glo) in SU-DHL-1 cells. The following applies: SU-DHL-1, large cell lymphoma, 3 days. Here is the method:
as §4, §1, §5

In a further test the test system is AMO-1 cells. Nature of the test: Cell viability assay (CellTiter-Glo) in AMO-1 cells. As to conditions: AMO-1, Multiple Myeloma, 3 days. Here is the method: as §4, §1, §5
For the next test, the system named is MV4;11 cells. The experiment in a line: Cell viability assay (CellTiter-Glo) in MV4;11 cells. As to conditions: MV4;11, AML, cell viability, 3 days. Here is the method:
as §4, §1, §5

Another test has as its system HL-60 cells. The experiment in a line: Cell viability assay (CellTiter-Glo) in HL-60 cells. The following applies: HL-60, APL, 3 days. The method, then:
as §4, §1, §5

The subject of the next test is NOMO-1 cells. Nature of the test: Cell viability assay (CellTiter-Glo) in NOMO-1 cells. The following applies: NOMO-1, AML, 3 days. The method, then: as §4, §1, §5
A further test concerns Kasumi-1 cells. Nature of the test: Cell viability assay (CellTiter-Glo) in Kasumi-1 cells. As to conditions: Kasumi-1, AML, cell viability, 3 days. Here is the method: as §4, §1, §5
In a further test the test system is CCRF-CEM cells. Nature of the test: Cell viability assay (CellTiter-Glo) in CCRF-CEM cells. The following applies: T-ALL, 3 days. The method, then: as §4, §1, §5
[1] abbreviates: Homo sapiens, 72 h, RS4;11 cells, 3 days, CellTiter-Glo.

T1 sequence (P23458 whole entry): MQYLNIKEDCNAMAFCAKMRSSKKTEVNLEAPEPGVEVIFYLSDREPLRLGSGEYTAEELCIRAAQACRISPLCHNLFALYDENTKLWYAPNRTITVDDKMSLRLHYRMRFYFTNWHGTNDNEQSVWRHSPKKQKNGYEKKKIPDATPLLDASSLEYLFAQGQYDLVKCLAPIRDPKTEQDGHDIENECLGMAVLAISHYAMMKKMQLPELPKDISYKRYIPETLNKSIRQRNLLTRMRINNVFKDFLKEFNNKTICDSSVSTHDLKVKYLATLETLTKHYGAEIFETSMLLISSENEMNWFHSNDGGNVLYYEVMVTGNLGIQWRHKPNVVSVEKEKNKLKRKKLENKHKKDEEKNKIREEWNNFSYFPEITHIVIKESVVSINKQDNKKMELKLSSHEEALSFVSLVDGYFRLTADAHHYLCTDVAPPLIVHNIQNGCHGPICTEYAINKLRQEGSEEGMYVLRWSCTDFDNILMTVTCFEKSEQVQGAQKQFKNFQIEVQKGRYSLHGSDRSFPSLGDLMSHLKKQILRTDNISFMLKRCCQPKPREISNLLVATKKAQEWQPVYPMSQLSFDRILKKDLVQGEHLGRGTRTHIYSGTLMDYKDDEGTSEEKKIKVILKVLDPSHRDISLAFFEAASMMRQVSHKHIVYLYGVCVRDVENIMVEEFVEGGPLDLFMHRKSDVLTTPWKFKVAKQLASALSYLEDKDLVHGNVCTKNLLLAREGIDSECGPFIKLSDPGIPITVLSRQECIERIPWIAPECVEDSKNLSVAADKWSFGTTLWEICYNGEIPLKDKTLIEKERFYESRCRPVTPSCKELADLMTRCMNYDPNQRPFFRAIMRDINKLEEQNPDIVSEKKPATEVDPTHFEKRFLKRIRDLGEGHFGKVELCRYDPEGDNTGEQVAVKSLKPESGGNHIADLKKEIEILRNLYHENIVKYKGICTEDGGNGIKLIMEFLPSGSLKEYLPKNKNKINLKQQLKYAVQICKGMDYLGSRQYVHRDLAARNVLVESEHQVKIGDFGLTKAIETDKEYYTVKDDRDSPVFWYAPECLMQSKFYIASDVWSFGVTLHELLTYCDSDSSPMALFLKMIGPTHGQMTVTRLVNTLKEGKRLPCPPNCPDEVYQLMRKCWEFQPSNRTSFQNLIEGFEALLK
T2 sequence (P15170 whole entry): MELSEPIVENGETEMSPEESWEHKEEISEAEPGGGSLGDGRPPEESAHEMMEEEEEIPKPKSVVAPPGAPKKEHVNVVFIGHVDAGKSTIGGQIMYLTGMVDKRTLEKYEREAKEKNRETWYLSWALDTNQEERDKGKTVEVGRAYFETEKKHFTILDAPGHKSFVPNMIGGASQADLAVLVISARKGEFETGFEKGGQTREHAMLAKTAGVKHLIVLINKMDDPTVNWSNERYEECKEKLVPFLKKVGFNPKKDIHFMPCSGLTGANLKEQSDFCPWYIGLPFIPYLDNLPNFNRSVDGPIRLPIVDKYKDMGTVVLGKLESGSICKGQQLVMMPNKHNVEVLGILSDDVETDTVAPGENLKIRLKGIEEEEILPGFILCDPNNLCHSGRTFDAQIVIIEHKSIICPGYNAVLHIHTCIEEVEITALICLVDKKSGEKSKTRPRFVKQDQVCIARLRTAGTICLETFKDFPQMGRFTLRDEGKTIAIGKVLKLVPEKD

Take `CS(=O)(=O)c1ccc(-c2cccc3nc(Nc4ccc(N5CCN(CC(=O)NCCCCCCCCNc6ccc7c(c6)C(=O)N(C6CCC(=O)NC6=O)C7=O)CC5)cc4)nn23)cc1` (stereo not shown) [JA213]: the values for the DC50 on JAK1 and on GSPT1 were < 35 nM and < 10 nM, respectively.
As usually defined, the IC50 is the concentration that inhibits the measured activity by half. As for `Cn1c(=O)n(C2CCC(=O)NC2=O)c2ccc(NCCCCCC(=O)N3CCN(c4ccc(Nc5nc6cccc(-c7ccc(S(C)(=O)=O)cc7)n6n5)cc4)CC3)cc21` (stereo not shown) [JA-292, 3-(3-Methyl-5-((6-(4-(4-((5-(4-(methylsulfonyl)phenyl)-[1,2,4]triazolo[1,5-a]pyridin-2-yl)amino)phenyl)piperazin-1-yl)-6-oxohexyl)amino)-2-oxo-2,3-dihydro-1H-benzo[d]imidazol-1-yl)piperidine-2,6-dione], the concentration for half-maximal inhibition (IC50) with RS4;11 cells (setting [1]) is > 500 nM.
The same measure, in the same setting: under `Cn1c(=O)n(C2CCC(=O)NC2=O)c2ccc(NCCCCCCC(=O)N3CCN(c4ccc(Nc5nc6cccc(-c7ccc(S(C)(=O)=O)cc7)n6n5)cc4)CC3)cc21` (stereo not shown) [JA-293, 3-(3-Methyl-5-((7-(4-(4-((5-(4-(methylsulfonyl)phenyl)-[1,2,4]triazolo[1,5-a]pyridin-2-yl)amino)phenyl)piperazin-1-yl)-7-oxoheptyl)amino)-2-oxo-2,3-dihydro-1H-benzo[d]imidazol-1-yl)piperidine-2,6-dione] stands > 500 nM.
With `Fc1cc(-c2cccc3ncc(-c4cnn(C5CCNCC5)c4)nc23)cc(F)c1CN1CCOCC1` [NVP-BSK805, reference compound], the 50% inhibitory concentration (IC50) in the test on RS4;11 cells (RS4;11, B-ALL, 3 days (Table 3)) is > 10000 nM; in the test on RS4;11 cells (RS4;11 cells, 3 days, CellTiter-Glo), > 10000 nM; with MOLM-13 cells it was 201 nM; with HEL cells, 1040 nM; in the test on KM12 cells, 2860 nM; with Jurkat cells it was 2520 nM. Besides, the IC50 with Pfeiffer cells is > 10000 nM; in the test with MM.1S cells, > 10000 nM; in the test with MOLT-4 cells, > 10000 nM; with NCI-H929 cells, > 10000 nM; in the test on MEG-01 cells, 8870 nM; with WSU-DLCL2 cells, > 10000 nM. Also, the IC50 with SU-DHL-1 cells is > 10000 nM; with AMO-1 cells it was > 10000 nM; with MV4;11 cells it was 390 nM; in the test with HL-60 cells, > 10000 nM; with NOMO-1 cells, 6280 nM; in the test with Kasumi-1 cells it was 758 nM. Moreover, the IC50 with CCRF-CEM cells was > 10000 nM.
As for `Cc1cnc(Nc2ccc(N3CCN(C)CC3)cc2)nc1Nc1cccc(S(=O)(=O)NC(C)(C)C)c1` [TG101209, reference compound], the IC50 in the test on RS4;11 cells (setting [1]) is 1840 nM; in the test on MOLM-13 cells (Homo sapiens, 72 h) it was 48.2 nM; in the test on HEL cells (Homo sapiens, 72 h), 1200 nM; with Jurkat cells (Homo sapiens, 72 h), 550 nM; in the test on Pfeiffer cells (Homo sapiens, 72 h), > 10000 nM; with MM.1S cells (Homo sapiens, MM1.S, 72 h) it was 6110 nM. For the same molecule, the IC50 in the test on MOLT-4 cells (Homo sapiens, 72 h) was 2500 nM; with NCI-H929 cells (Homo sapiens, 72 h), > 10000 nM; in the test with MEG-01 cells (Homo sapiens, 72 h), 7120 nM; in the test on WSU-DLCL2 cells (Homo sapiens, WSUDLCL2, 72 h) it was 1070 nM; with SU-DHL-1 cells (Homo sapiens, 72 h), > 10000 nM; in the test on AMO-1 cells (Homo sapiens, AMO1, 72 h) it was 4780 nM. Also, the IC50 with MV4;11 cells (Homo sapiens, 72 h) was 194 nM; in the test on HL-60 cells (Homo sapiens, 72 h) it was > 10000 nM; with NOMO-1 cells (Homo sapiens, 72 h), 1300 nM; in the test on Kasumi-1 cells (Homo sapiens, 72 h), 529 nM; in the test on CCRF-CEM cells (Homo sapiens, 72 h) it was 3960 nM.
